Source: US20050112573A1, “Method of detecting toxic substance” (priority 2001, published 2005)

System: yeast genes (level of expressed mRNA)
Assay: DNA chip analysis of expressed mRNA of yeast genes after 2 h culture with a toxic chemical substance
Type: cell-based, Saccharomyces cerevisiae S288C
Procedure: Yeast (Saccharomyces cerevtisiae S288C (α SUC2mal mel gap2 CUP1)) were cultured at 25° C. on YPD medium (yeast extract 1%, polypepton 2%, glucose 2%). One of toxic chemical substances was added to the cell at logarithmic growth phase, and the cell was further cultured for two hours. Cell was cultured without any chemical substance in the same condition, and was used as control. Concentrations of the chemical substances were defined to inhibit the growth of the yeast but not lead to death.
After the completion of cultivation, the culture was centrifuged to collect the cells. To the cells, sodium acetate buffer (50 mM sodium acetate, 10 mM EDTA, 1% SDS) was added, and the mixture was shaken at 65° C. for five minutes, followed by returning to room temperature, and obtaining the supernatant, which procedure was repeated two times. To the supernatant, ½ amount of a solution of phenol/chloroform was added, and the mixture was centrifuged to give a supernatant, which was added with an equal amount of chloroform, and the mixture was centrifuged to give a supernatant. To the supernatant, an equal amount of isopropanol containing 0.3 M sodium acetate was added, and the mixture was allowed to stand at room temperature for 30 minutes, after which the mixture was centrifuged to give a sediment of the whole RNAs. Seventy % ethanol was added to the sediment, and the mixture was again centrifuged to give a sediment, which was then dried and dissolved in water. mRNA was isolated from the whole RNAs as followings. In view of the fact that a poly A chain is attached to the 3′ terminus of mRNA, a polynucleotide having a poly T structure which was immobilized on the surface of latex beads was used to trap the mRNA, and then the mRNA was washed and eluted with spine column (Oligotex-dT30<Super>mRNA Purification Kit, Takara). Reverse transcription of the mRNA was conducted with a reverse transcriptase (Super Script II Reverse Transcriptase; catalogue No. 18064-014, GibcoBRL) using fluorescence-labeled nucleotides to give cDNAs that were introduced with Cy3-dUTP or Cy5-dUTP during the reverse transcription.
The labeled cDNAs were dissolved in TE buffer (10 mM Tris-HCl/1 mM EDTA, pH8.0), and the solution was dropped on the DNA chip containing the whole genes of yeast (DNA Chip Research Inc. Japan) so that the cDNAs were hybridized on the DNA chip at 65° C. for over 12 hours. The fluoresces intensity of the DNA chip was read with a scanner, and the ratio relative to the fluorescence intensity resulting from the absence of chemical substance was estimated as the following, which is shown in Tables 1 to 9: [formula]
In the Tables, “Intensity” indicated in the rightmost column is a value of the level of expressed mRNA of each gene in control cells as divided by the average level of the expressions of the whole genes.

CdCl2 [(2)]
The level of expressed mRNA in the presence of chemical substance/ (yeast gene YAL053W, ratio to control without chemical): 0.9
The level of expressed mRNA in the presence of chemical substance/The level of expressed mRNA in the absence of chemical substance (yeast gene YAR010C): 1.2
The level of expressed mRNA in the presence of chemical substance/The level of expressed mRNA in the absence of chemical substance (yeast gene YBL005W-A): 0.9
The level of expressed mRNA in the presence of chemical substance/The level of expressed mRNA in the absence of chemical substance (yeast gene YBL041W): 1.4
The level of expressed mRNA in the presence of chemical substance/The level of expressed mRNA in the absence of chemical substance (yeast gene YBL043W): 1.2
The level of expressed mRNA in the presence of chemical substance/ (yeast gene YBL048W, ratio to control without chemical substance, 2 h culture): 7.9
The level of expressed mRNA in the presence of chemical substance/The level of expressed mRNA in the absence of chemical substance (yeast gene YBL078C): 2.7
The level of expressed mRNA in the presence of chemical substance/ (yeast gene YBL107C, ratio to control without chemical substance, 2 h culture): 1.1
The level of expressed mRNA in the presence of chemical substance/in the absence of chemical substance (yeast gene YBR036C): 1.7
The level of expressed mRNA in the presence of chemical substance/The level of expressed mRNA in the absence of chemical substance (yeast gene YBR214W): 2.1
The level of expressed mRNA in the presence of chemical substance/in the absence of chemical substance (yeast gene YBR298C): 1.0
The level of expressed mRNA in the presence of chemical substance/The level of expressed mRNA in the absence of chemical substance (yeast gene YCL020W): 2.5
The level of expressed mRNA in the presence of chemical substance/The level of expressed mRNA in the absence of chemical substance (yeast gene YCL027W): 2.0
The level of expressed mRNA in the presence of chemical substance/The level of expressed mRNA in the absence of chemical substance (yeast gene YCR004C): 1.0
The level of expressed mRNA in the presence of chemical substance/The level of expressed mRNA in the absence of chemical substance (yeast gene YCR071C): 0.7
The level of expressed mRNA in the presence of chemical substance/The level of expressed mRNA in the absence of chemical substance (yeast gene YCR088W): 1.1
The level of expressed mRNA in the presence of chemical substance/The level of expressed mRNA in the absence of chemical substance (yeast gene YDL008W): 1.0
The level of expressed mRNA in the presence of chemical substance/ (yeast gene YDL072C, ratio to control without chemical): 1.1
The level of expressed mRNA in the presence of chemical substance/in the absence of chemical substance (yeast gene YDL078C): 1.1
The level of expressed mRNA in the presence of chemical substance/ (yeast gene YDL204W, ratio to control without chemical): 1.9
The level of expressed mRNA in the presence of chemical substance/in the absence of chemical substance (yeast gene YDL215C): 1.5
The level of expressed mRNA in the presence of chemical substance/ (yeast gene YDL222C, ratio to control without chemical): 1.1
The level of expressed mRNA in the presence of chemical substance/The level of expressed mRNA in the absence of chemical substance (yeast gene YDL238C): 1.0
The level of expressed mRNA in the presence of chemical substance/The level of expressed mRNA in the absence of chemical substance (yeast gene YDR055W): 2.1
The level of expressed mRNA in the presence of chemical substance/The level of expressed mRNA in the absence of chemical substance (yeast gene YDR084C): 0.9
The level of expressed mRNA in the presence of chemical substance/The level of expressed mRNA in the absence of chemical substance (yeast gene YDR085C): 1.8
The level of expressed mRNA in the presence of chemical substance/The level of expressed mRNA in the absence of chemical substance (yeast gene YDR104C): 1.1
The level of expressed mRNA in the presence of chemical substance/The level of expressed mRNA in the absence of chemical substance (yeast gene YDR115W): 0.9
The level of expressed mRNA in the presence of chemical substance/The level of expressed mRNA in the absence of chemical substance (yeast gene YDR259C): 1.0
The level of expressed mRNA in the presence of chemical substance/in the absence of chemical substance (yeast gene YDR297W): 0.8
The level of expressed mRNA in the presence of chemical substance/The level of expressed mRNA in the absence of chemical substance (yeast gene YDR315C): 1.4
The level of expressed mRNA in the presence of chemical substance/ (yeast gene YDR330W, ratio to control without chemical substance, 2 h culture): 1.5
The level of expressed mRNA in the presence of chemical substance/The level of expressed mRNA in the absence of chemical substance (yeast gene YDR358W): 1.1
The level of expressed mRNA in the presence of chemical substance/in the absence of chemical substance (yeast gene YDR387C): 0.9
The level of expressed mRNA in the presence of chemical substance/The level of expressed mRNA in the absence of chemical substance (yeast gene YDR388W): 0.7
The level of expressed mRNA in the presence of chemical substance/ (yeast gene YDR411C, ratio to control without chemical substance, 2 h culture): 2.8
The level of expressed mRNA in the presence of chemical substance/The level of expressed mRNA in the absence of chemical substance (yeast gene YDR432W): 0.8
The level of expressed mRNA in the presence of chemical substance/The level of expressed mRNA in the absence of chemical substance (yeast gene YDR481C): 2.3
The level of expressed mRNA in the presence of chemical substance/The level of expressed mRNA in the absence of chemical substance (yeast gene YDR510W): 1.3
The level of expressed mRNA in the presence of chemical substance/ (yeast gene YDR511W, ratio to control without chemical substance, 2 h culture): 1.7
The level of expressed mRNA in the presence of chemical substance/ (yeast gene YDR545W, ratio to control without chemical substance, 2 h culture): 1.2
The level of expressed mRNA in the presence of chemical substance/ (yeast gene YEL001C, ratio to control without chemical): 1.0
The level of expressed mRNA in the presence of chemical substance/The level of expressed mRNA in the absence of chemical substance (yeast gene YEL042W): 0.9
The level of expressed mRNA in the presence of chemical substance/The level of expressed mRNA in the absence of chemical substance (yeast gene YEL066W): 2.9
The level of expressed mRNA in the presence of chemical substance/ (yeast gene YER004W, ratio to control without chemical substance, 2 h culture): 1.5
The level of expressed mRNA in the presence of chemical substance/ (yeast gene YER035W, ratio to control without chemical substance, 2 h culture): 1.6
The level of expressed mRNA in the presence of chemical substance/The level of expressed mRNA in the absence of chemical substance (yeast gene YER039C): 1.2
The level of expressed mRNA in the presence of chemical substance/ (yeast gene YER079W, ratio to control without chemical substance, 2 h culture): 1.6
The level of expressed mRNA in the presence of chemical substance/ (yeast gene YER106W, ratio to control without chemical): 0.7
The level of expressed mRNA in the presence of chemical substance/The level of expressed mRNA in the absence of chemical substance (yeast gene YER107C): 0.5
The level of expressed mRNA in the presence of chemical substance/The level of expressed mRNA in the absence of chemical substance (yeast gene YER130C): 1.6
The level of expressed mRNA in the presence of chemical substance/ (yeast gene YER158C, ratio to control without chemical substance, 2 h culture): 0.9
The level of expressed mRNA in the presence of chemical substance/ (yeast gene YER163C, ratio to control without chemical substance, 2 h culture): 2.4
The level of expressed mRNA in the presence of chemical substance/ (yeast gene YER175C, ratio to control without chemical substance, 2 h culture): 1.2
The level of expressed mRNA in the presence of chemical substance/ (yeast gene YFL006W, ratio to control without chemical substance, 2 h culture): 2.8
